The source made the active and inactive calls. The calls are words filed in the database; no cut-off is given here.
Experiments:
[1] = system: T98G; assay: Induction of DNA damage in human T98G cells at 10 uM incubated for 24 hrs by TUNEL assay; type: functional, cell-based
[2] = Drug uptake in human SVG p12 cells at 10 uM incubated for 8 hrs by DAPI staining based immunofluorescence analysis; type: ADME, cell-based; settings: svg p12, 8 h
[3] = system: T98G; assay: Cytotoxicity against human T98G cells assessed as reduction in cell viability at 10 uM glucose deprived for 8 hrs followed by compound addition and measured after 48 hrs by MTT assay relative to control; type: functional, cell-based
[4] = Stability of compound at pH 2 measured after 24 hrs by HPLC analysis; type: physicochemical; settings: buffer, pH 2, 24 h
[5] = Stability of compound at pH 5.0 incubated for 72 hrs by HPLC analysis; type: physicochemical; settings: buffer, pH 5, 72 h
[6] = Drug uptake in human T98G cells assessed as red appearance incubated for 24 hrs by imaging analysis; type: ADME, cell-based
[7] = Drug uptake in human A-172 cells assessed as red appearance incubated for 24 hrs by imaging analysis; type: ADME, cell-based; settings: a 172, 24 h
[8] = Drug uptake in human A-172 cells at 10 uM incubated for 8 hrs by DAPI staining based immunofluorescence analysis; type: ADME, cell-based; settings: a 172, 8 h
[9] = system: DNA; assay: Binding affinity to DNA (unknown origin) assessed as Stem-Volmer quenching constant by fluorescence spectral analysis; type: nucleic-acid assay
[10] = Drug uptake in human T98G cells at 10 uM incubated for 8 hrs by DAPI staining based immunofluorescence analysis; type: ADME, cell-based
[11] = system: A 172; assay: Cytotoxicity against human A-172 cells assessed as reduction in cell viability at 10 uM glucose deprived for 8 hrs followed by compound addition and measured after 24 to 48 hrs by MTT assay relative to control; type: functional, cell-based; settings: time 24-48 hrs
[12] = Stability of compound in T98G GBM cell culture media at pH 6.8 measured after 72 hrs by HPLC analysis; type: physicochemical; settings: pH 6.8, 72 h
[13] = system: T98G; assay: Cytotoxicity against human T98G cells assessed as reduction in cell viability at 10 uM glucose deprived for 8 hrs followed by compound addition and measured after 24 hrs by MTT assay relative to control; type: functional, cell-based
[14] = system: DNA; assay: Binding affinity to DNA (unknown origin) assessed as intercalation by measuring hypsochromic shift at 100 uM by UV-Vis absorption spectra; type: nucleic-acid assay
[15] = system: A 172; assay: Cytotoxicity against human A-172 cells co-cultured with MDCK-II cells transfected with human P-gp assessed as cell viability at 100 uM pretreated for 2 hrs followed by […] cell removal and measured after 48 hrs by MTT assay relative to control; type: functional; settings: time 50 hrs, read-out: Activity
[16] = Stability of compound at pH 7.4 incubated for 72 hrs by HPLC analysis; type: physicochemical; settings: buffer, pH 7.4, 72 h
[17] = Stability of compound at pH 3.5 incubated for 72 hrs by HPLC analysis; type: physicochemical; settings: buffer, pH 3.5, 72 h
[18] = system: DNA; assay: Binding affinity to DNA (unknown origin) assessed as intercalative binding constant (Ka) by UV-Vis absorption spectra; type: nucleic-acid assay
[19] = Cytotoxicity against human T98G cells co-cultured with MDCK-II cells transfected with human P-gp assessed as cell viability at 100 uM pretreated for 2 hrs followed by […] cell removal and measured after 48 hrs by MTT assay relative to control; type: functional; settings: time 50 hrs, read-out: Activity
[20] = Stability of compound at pH 2 assessed as drug hydrolysis measured after 72 hrs by HPLC analysis; type: physicochemical; settings: buffer, read-out: Drug degradation
[21] = system: A 172; assay: Cytotoxicity against human A-172 cells assessed as reduction in cell viability at 10 uM incubated for 24 to 48 hrs by MTT assay; type: functional, cell-based; settings: time 24-48 hrs
[22] = system: A 172; assay: Induction of apoptosis in human A-172 cells assessed as apoptotic rate at 10 uM incubated for 24 hrs by TUNEL assay relative to control; type: functional
[23] = system: T98G; assay: Induction of apoptosis in human T98G cells assessed as apoptotic rate at 10 uM incubated for 24 hrs by TUNEL assay relative to control; type: functional
[24] = system: T98G; assay: Cytotoxicity against human T98G cells assessed as cell viability at 10 uM incubated for 24 hrs by MTT assay relative to control; type: functional
[25] = Cytotoxicity against human SVG p12 cells assessed as reduction in cell viability at 10 uM incubated for 24 to 48 hrs by MTT assay; type: toxicity, cell-based; settings: svg p12, 10 µM, time 24-48 hrs
[26] = system: A 172; assay: Induction of DNA damage in human A-172 cells at 10 uM incubated for 24 hrs by TUNEL assay; type: functional, cell-based
[27] = system: T98G; assay: Cytotoxicity against human T98G cells assessed as reduction in cell viability at 10 uM incubated for 48 hrs by MTT assay; type: functional, cell-based

For COc1cccc2c1C(=O)c1c(O)c3c(c(O)c1C2=O)C[C@@](O)(/C(CO)=N\OCC(=O)NC[C@H]1O[C@H](OC)[C@H](O)[C@@H](O)[C@@H]1O)C[C@@H]3O[C@H]1C[C@H](N)[C@H](O)[C@H](C)O1, the Activity [1] was “inactive”, the Drug uptake [2] was “Not Active” and the Activity [3] was “inactive”. For the same molecule, the Stability [4] was “Unstable”, the Stability [5] was “Stable” and the Drug uptake [6] was “Not Active”. For the same molecule, the Drug uptake [7] was “Not Active”, the Drug uptake [8] was “Not Active” and the KSV [9] was 4.4 10^5/M. For the same molecule, the Drug uptake [10] was “Not Active”, the Activity [11] was “Active” and the Stability [12] was “Stable”. For the same molecule, the Activity [13] was “inactive”, the Activity [14] was “Active” and the viability at 100 µM [15] was 129%. For the same molecule, the Stability [16] was “Stable”, the Stability [17] was “Stable” and the K [18] was 3.5 10^5/M. For the same molecule, the viability at 100 µM [19] was 76%, the degraded at 72 h [20] was 46% and the Activity [21] was “Active”. For the same molecule, the Activity [22] was 32% and the Activity [23] was “inactive”.

In the case of COc1cccc2c1C(=O)c1c(O)c3c(c(O)c1C2=O)C[C@@](O)(C(=O)CO)C[C@@H]3O[C@H]1C[C@H](N)[C@H](O)[C@H](C)O1 [DOXORUBICIN], the Activity [1] is reported as “Active”, the Activity [24] is reported as “inactive” and the Drug uptake [2] is reported as “Active”. The Activity [3] was “Active”, the Drug uptake [8] was “Active” and the KSV [9] was 3.1 10^5/M. The Drug uptake [10] was “Active”, the Activity [11] was “Active” and the Activity [13] was “inactive”. For the same molecule, the viability at 100 µM [15] was 94%, the Activity [25] was “Toxic” and the K [18] was 3.3 10^5/M. For the same molecule, the viability at 100 µM [19] was 73%, the Activity [26] was “Active” and the Activity [21] was “Active”. The Activity [22] was 102% and the Activity [23] was 122%.

For COc1cccc2c1C(=O)c1c(O)c3c(c(O)c1C2=O)C[C@@](O)(/C(CO)=N\OCC(=O)NCc1cn(C[C@H]2O[C@H](OC)[C@H](O)[C@@H](O)[C@@H]2O)nn1)C[C@@H]3O[C@H]1C[C@H](N)[C@H](O)[C@H](C)O1, the Activity [1] was “Active”, the viability at 10 µM ([24]; read-out: Activity) was 80% and the Drug uptake [2] was “Active”. The Activity [3] was “Active”, the Stability [4] was “Unstable” and the Stability [5] was “Stable”. The Drug uptake [6] was “Active”, the Drug uptake [7] was “Active” and the Drug uptake [8] was “Active”. For the same molecule, the KSV [9] was 3.5 10^5/M, the Drug uptake [10] was “Active” and the Activity [11] was “Active”. The Stability [12] was “Stable”, the Activity [13] was “inactive” and the Activity [14] was “Active”. The viability at 100 µM [15] was 58%, the Stability [16] was “Stable” and the Activity [25] was “Non-Toxic”. For the same molecule, the Stability [17] was “Stable”, the K [18] was 2.7 10^5/M and the viability at 100 µM [19] was 62%. For the same molecule, the Activity [26] was “Active”, the degraded at 72 h [20] was 49% and the Activity [27] was “Active”. The Activity [21] was “Active”, the Activity [22] was 202% and the Activity [23] was 116%.
